Experimental data as given in US8697385B1, “Protein controlling synthesis of collagen and associated methods” (Florida State University Research Foundation, Inc., priority 2009, dated 2014).

Legend:
[1] = test system: polysomes; assay: Fractionation of polysomes on sucrose gradients; assay type: cell-based, human
Experimental: ML-7, blebbistatin, cytochalasin B, puromycin, and cycloheximide were purchased from Sigma. ML-7 was used at 40 μM, blebbistatin was used at 100 μM, and cytochalasin B was used at 20 μM. Cells were incubated with the drugs for 16 h before analysis. Puromycin (200 μg/ml) and cycloheximide (100 μg/ml) were added to the cells for 2 h. Human lung fibroblasts have been described previously.16 Scleroderma fibroblasts were purchased from the European Collection of Cell Cultures (cell line BM0070) and derived from the skin of a scleroderma patient. MEFs were derived from knock-in mice in which the 5′SL of the collagen α1(I) gene has been mutated (Parsons et al., submitted). Several independent cell isolates were used throughout the study. All cells were cultured in Dulbecco's modified Eagle's medium supplemented with 10% fetal bovine serum for up to 10 passages. Plasmid constructs and adenovirus preparation. The HA-tagged LARP6 clone and the deletion mutants have been described previously.^16 Adenoviruses were constructed by recloning of the constructs into the pAdCMVTRACK vector, followed by recombination with the pAdEasy vector and amplification, as described previously.^48 Expression of each construct was verified by Western blot analysis. The viruses made express both the full-size test protein and the green fluorescent protein (GFP), which is encoded by an independent transcription unit.^48 Expression of GFP served as control for viral transduction. RT-PCR analysis Total cellular RNA was isolated using an RNA isolation kit (Sigma). RT-PCRs were performed with 100 ng of total RNA or using rTth reverse transcriptase (Boca Scientific, Boca Raton, Fla.). [^32P]dCTP was included in the PCR step to label the products, which were resolved on sequencing gels, as described previously.^8,31,49,50 When RNA from polysomal fractions was analyzed, an equal aliquot of each fraction was used. The number of cycles was adjusted to within the linear range of the reaction. The primers used for RT-PCR were as follows: h-collagen α1(I), 5′ primer […] (SEQ ID NO:3) and 3′ primer […] (SEQ ID NO:4); h-collagen α2(I), 5′ primer […] (SEQ ID NO:5) and 3′ primer […] (SEQ ID NO:6).
Polysomes were fractionated as described previously.^16 Sucrose fractions (0.5 ml) were collected, and total RNA was extracted by phenol/chloroform and isopropanol precipitation. Equivalent amounts of each fraction were analyzed by RT-PCR. Total proteins were extracted from sucrose fractions by trichloroacetic acid precipitation, and equivalent amounts were analyzed by Western blot analysis.
One of the roles of nonmuscle myosin filaments may be to present collagen mRNAs to ribosomes. Therefore, we assessed if the association of collagen mRNAs with nonmuscle myosin is dependent on intact polysomes. […] Only the anti-myosin antibody immunoprecipitated collagen α1(I) and α2(I) mRNAs (lane 1). We then immunoprecipitated nonmuscle myosin from lung fibroblasts treated with cycloheximide or puromycin and analyzed if this can change the pull-down of collagen mRNAs. As control, the association with vimentin was analyzed in the same samples (FIG. 9b). […] The association of collagen mRNAs with vimentin increased after the dissociation of polysomes (lanes 3 and 4). […] To assess if nonmuscle myosin copurifies with polysomes, we fractionated polysomes on sucrose gradients^16 and analyzed for the presence of nonmuscle myosin in the fractions using Western blot analysis (FIG. 9f). […]

[2] = test system: lung fibroblasts; assay: Apoptosis of primary lung fibroblasts; assay type: cell-based; details: lung fibroblasts after ML-7 treatment; without treatment 2.2%
Text: To assess the role of nonmuscle myosin in collagen synthesis, we disrupted nonmuscle myosin filaments in two different cell types: primary human lung fibroblasts and primary scleroderma skin fibroblasts. These cells are responsible for lung and skin fibrosis. […] To assess the effect of ML-7 on collagen protein synthesis and secretion, we analyzed the levels of collagen α1(I) and α2(I) polypeptides in the intracellularly space and in the medium using Western blot analysis and chain-specific antibodies.^12,15,31-33 ML-7 treatment profoundly affected the secretion of type I collagen, but the effect differed in the two types of primary fibroblasts. […] To assess if the secreted α1(I) polypeptides had been secreted as disulfide-bonded homotrimers, we performed Western blot analysis under nonreducing conditions (FIG. 3d). […] However, since α2(I) polypeptide was absent in the cell medium of ML-7-treated cells, the bands must represent disulfide-bonded collagen α1(I) chains. The α2(I) antibody could not recognize the polypeptide under nonreducing conditions, so we could not directly test its presence in S—S bonded collagen. Since there are reports that ML-7 can cause apoptosis of epithelial cells, we tested if ML-7 caused apoptosis of the primary fibroblasts. […] Therefore, we concluded that increased apoptosis is not responsible for the observed effects of ML-7. […]

## O=S(=O)(c1cccc2c(I)cccc12)N1CCCNCC1 [ML-7]
[1]; 15-45% sucrose gradient, Western blot, puromycin or ML-7 treatment
  nonmuscle myosin in polysomal fractions: decrease in the amount of nonmuscle myosin in the heaviest fractions
[1]; ML-7-treated vs control cells, RT-PCR of fractions
  distribution of collagen α1(I) and α2(I) mRNAs in polysomal fractions: a small fraction of collagen α1(I) and α2(I) mRNAs were shifted into nonpolysomal fractions 16 and 17
[1]; ML-7 treatment
  overall distribution of polysomes: did not have an effect
[1]; ML-7 treatment, RT-PCR, sum of all fractions
  total level of collagen α1(I) and α2(I) mRNAs: not significantly affected
[2]
  percentage of apoptotic cells: 4.2%
